# Measured values published in the supplement of paper PMC6411743.
# Compound: Nc1ncnc2c1ncn2[C@@H]1O[C@H](COP(=O)(O)OP(=O)(O)OP(=O)(O)O)[C@@H](O)[C@H]1O [adenosine triphosphate]
# Experiment: pEC50 of ATP-induced change in protein thermal stability (2D-TPP)
# Method in brief: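 Crude Jurkat lysate was exposed to five concentrations, vehicle among them, for 10 min at room temperature, then heated for 3 min at 12 temperatures between 42 and 63.9 °C and treated with NP40 and benzonase for 60 min at 4 °C. Soluble protein remaining after ultracentrifugation was measured by TMT LC-MS/MS, and fold changes relative to vehicle at each temperature were median-normalised. pEC50 values come from dose-response fits made per replicate across adjacent temperature pairs, with hits called under permutation-based false discovery rate control. Three independent experiments were run.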
# 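Further: lysate dosed with Na-ATP at 0 0.005 0.05 0.5 and 2 mM.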
# Sequence of UniProt O43598 (O43598 whole entry): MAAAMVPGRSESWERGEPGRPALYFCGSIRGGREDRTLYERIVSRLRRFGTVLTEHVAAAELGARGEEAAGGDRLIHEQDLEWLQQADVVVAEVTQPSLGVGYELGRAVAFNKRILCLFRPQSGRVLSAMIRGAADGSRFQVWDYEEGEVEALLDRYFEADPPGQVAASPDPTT
# Sequence of UniProt Q8WXA9 (Q8WXA9 whole entry): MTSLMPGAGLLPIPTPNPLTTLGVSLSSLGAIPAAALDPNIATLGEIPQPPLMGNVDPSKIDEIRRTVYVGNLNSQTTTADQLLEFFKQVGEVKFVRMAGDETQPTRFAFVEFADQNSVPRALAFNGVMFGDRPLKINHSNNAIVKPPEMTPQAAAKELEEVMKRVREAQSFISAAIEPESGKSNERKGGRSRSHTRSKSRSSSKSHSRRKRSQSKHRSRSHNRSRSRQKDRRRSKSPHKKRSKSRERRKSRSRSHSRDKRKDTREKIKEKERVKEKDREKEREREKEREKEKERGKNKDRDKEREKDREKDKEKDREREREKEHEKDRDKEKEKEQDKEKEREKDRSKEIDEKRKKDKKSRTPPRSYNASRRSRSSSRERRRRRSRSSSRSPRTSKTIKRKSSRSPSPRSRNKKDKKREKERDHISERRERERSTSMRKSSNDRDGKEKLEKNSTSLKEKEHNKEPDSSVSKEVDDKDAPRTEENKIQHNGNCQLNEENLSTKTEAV
# Sequence of UniProt P0C0S5 (P0C0S5 whole entry): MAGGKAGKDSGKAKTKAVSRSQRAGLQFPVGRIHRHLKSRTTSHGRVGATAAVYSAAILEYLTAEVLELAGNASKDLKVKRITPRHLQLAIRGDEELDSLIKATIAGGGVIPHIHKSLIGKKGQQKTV
# Sequence of UniProt Q9BQ61 (Q9BQ61 whole entry): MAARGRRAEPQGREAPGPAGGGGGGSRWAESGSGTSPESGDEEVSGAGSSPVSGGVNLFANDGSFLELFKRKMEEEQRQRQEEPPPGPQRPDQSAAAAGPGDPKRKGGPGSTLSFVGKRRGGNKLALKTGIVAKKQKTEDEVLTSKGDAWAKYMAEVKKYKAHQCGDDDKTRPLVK
# Sequence of UniProt Q9UPN6 (Q9UPN6 whole entry): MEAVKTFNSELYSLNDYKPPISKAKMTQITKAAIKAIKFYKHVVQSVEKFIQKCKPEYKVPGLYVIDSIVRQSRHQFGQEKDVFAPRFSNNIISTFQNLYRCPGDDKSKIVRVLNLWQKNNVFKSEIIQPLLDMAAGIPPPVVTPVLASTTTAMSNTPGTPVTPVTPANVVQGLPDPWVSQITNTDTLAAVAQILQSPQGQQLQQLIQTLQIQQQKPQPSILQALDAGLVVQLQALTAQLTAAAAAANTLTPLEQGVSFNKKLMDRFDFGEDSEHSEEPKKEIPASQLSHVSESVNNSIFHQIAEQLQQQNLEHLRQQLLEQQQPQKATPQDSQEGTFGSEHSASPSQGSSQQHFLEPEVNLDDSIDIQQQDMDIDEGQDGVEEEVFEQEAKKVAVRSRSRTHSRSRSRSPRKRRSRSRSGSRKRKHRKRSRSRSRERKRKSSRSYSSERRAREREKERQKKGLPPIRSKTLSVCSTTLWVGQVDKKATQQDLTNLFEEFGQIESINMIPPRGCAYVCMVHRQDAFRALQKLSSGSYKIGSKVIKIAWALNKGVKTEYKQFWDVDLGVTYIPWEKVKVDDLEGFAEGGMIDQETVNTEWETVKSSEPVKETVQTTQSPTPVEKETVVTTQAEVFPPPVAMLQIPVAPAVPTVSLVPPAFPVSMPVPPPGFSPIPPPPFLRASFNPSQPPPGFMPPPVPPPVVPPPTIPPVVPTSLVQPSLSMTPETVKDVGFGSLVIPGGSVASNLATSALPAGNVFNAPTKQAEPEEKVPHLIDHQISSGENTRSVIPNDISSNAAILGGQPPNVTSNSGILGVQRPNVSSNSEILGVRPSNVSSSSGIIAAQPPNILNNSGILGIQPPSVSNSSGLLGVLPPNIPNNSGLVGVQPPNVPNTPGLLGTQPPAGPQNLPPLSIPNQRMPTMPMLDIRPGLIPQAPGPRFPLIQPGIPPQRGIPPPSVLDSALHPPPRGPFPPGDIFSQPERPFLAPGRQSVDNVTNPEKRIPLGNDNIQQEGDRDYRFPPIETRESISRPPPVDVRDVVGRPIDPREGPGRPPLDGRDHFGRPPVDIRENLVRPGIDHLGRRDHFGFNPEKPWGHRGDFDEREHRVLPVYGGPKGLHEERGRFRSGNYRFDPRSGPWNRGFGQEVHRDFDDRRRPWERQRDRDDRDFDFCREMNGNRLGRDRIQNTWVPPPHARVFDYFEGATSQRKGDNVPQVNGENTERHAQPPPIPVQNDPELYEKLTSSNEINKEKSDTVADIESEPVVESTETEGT
# Sequence of UniProt P24539 (P24539 whole entry): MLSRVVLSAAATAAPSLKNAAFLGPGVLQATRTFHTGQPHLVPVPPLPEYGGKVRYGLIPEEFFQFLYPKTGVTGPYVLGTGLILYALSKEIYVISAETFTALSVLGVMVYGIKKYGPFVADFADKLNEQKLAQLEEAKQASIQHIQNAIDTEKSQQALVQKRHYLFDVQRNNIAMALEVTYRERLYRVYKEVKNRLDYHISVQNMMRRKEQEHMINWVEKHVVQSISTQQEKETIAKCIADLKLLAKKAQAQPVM
# Sequence of UniProt Q6ZUM4 (Q6ZUM4 whole entry): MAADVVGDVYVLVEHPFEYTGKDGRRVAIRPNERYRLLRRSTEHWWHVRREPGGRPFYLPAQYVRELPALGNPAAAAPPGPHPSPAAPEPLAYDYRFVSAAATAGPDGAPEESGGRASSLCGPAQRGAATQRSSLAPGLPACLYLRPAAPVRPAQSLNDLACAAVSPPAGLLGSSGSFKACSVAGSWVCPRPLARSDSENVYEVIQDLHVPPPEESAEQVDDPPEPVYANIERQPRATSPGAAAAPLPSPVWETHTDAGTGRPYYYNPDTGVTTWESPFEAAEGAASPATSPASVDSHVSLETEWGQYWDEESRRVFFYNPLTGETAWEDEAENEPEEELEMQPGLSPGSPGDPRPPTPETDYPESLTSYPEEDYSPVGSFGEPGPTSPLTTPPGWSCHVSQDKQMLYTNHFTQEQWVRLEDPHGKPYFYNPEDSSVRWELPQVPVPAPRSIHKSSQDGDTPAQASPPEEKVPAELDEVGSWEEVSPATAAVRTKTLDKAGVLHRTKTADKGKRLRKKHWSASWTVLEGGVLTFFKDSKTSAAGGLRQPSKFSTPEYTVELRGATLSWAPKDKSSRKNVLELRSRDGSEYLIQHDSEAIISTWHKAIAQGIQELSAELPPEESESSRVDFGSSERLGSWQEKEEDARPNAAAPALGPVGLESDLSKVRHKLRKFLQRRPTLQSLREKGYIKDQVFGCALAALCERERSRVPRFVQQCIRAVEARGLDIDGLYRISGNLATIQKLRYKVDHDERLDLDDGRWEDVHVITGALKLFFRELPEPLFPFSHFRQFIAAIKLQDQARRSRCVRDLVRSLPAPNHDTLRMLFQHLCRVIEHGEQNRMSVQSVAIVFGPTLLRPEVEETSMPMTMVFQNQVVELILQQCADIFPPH
# Sequence of UniProt Q8N4C8 (Q8N4C8 whole entry, looked up): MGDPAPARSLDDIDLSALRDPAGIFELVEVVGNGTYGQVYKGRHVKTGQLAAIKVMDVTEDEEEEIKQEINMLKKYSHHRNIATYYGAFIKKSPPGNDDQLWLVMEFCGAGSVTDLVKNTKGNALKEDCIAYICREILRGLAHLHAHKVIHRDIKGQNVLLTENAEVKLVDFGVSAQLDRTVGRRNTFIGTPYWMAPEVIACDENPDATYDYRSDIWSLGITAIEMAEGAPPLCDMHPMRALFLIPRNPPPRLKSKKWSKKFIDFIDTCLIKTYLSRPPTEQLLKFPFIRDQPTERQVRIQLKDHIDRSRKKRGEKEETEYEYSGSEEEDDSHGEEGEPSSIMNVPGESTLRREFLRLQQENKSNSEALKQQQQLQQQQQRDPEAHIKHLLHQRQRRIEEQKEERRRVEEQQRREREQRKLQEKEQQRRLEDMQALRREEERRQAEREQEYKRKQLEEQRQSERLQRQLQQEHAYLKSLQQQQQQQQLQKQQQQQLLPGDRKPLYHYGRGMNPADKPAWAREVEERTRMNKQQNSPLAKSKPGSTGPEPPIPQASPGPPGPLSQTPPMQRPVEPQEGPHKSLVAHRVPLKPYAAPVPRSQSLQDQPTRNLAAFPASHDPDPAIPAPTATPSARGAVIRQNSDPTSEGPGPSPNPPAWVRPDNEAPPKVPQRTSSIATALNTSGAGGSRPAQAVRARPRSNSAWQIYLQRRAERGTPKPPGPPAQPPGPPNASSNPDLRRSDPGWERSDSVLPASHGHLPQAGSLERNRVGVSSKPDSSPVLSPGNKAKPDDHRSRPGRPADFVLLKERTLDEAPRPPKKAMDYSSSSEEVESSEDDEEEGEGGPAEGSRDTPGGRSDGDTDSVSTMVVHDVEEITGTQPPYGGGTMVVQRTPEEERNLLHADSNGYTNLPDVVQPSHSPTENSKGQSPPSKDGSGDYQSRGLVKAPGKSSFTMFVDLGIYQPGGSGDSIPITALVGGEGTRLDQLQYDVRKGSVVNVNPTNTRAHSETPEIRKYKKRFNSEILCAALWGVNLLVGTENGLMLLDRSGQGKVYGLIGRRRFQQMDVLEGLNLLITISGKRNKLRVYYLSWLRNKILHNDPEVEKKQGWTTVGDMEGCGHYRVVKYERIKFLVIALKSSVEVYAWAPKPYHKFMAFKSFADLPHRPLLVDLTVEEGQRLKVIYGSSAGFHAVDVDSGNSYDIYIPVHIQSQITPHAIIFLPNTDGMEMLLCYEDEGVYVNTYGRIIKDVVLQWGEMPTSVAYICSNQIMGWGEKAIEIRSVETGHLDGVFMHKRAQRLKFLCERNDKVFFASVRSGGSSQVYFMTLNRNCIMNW
# Sequence of UniProt P62308 (P62308 whole entry): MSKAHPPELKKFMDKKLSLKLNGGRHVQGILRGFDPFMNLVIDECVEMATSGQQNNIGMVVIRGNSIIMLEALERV
# Sequence of UniProt P84085 (P84085 whole entry): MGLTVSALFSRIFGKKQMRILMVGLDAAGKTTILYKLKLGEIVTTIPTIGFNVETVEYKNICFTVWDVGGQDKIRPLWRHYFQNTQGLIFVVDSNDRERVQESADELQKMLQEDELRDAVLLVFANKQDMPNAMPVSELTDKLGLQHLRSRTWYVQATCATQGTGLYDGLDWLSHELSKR
row,pEC50,Target
1,3.24,UniProt O15530 (effect direction: stabilized)
2,4.16,UniProt O43314 (effect direction: stabilized)
3,3.25,UniProt O43598 (effect direction: stabilized)
4,< 2.7,UniProt O43847 (effect direction: stabilized)
5,3.63,UniProt O43929 (effect direction: stabilized)
6,3.06,UniProt O60524 (effect direction: destabilized)
7,< 2.7,UniProt O60610 (effect direction: stabilized)
8,< 2.7,UniProt O75521 (effect direction: stabilized)
9,3.14,UniProt O94826 (effect direction: stabilized)
10,3.27,UniProt O95071 (effect direction: stabilized)
11,< 2.7,UniProt O95319 (effect direction: stabilized)
12,3.33,UniProt O96017 (effect direction: stabilized)
13,2.96,UniProt P0C0S5 (effect direction: stabilized)
14,2.92,UniProt P0C0S8 (effect direction: stabilized)
15,3.72,UniProt P0DMV8 (effect direction: stabilized)
16,3.07,UniProt P04350 (effect direction: stabilized)
17,2.93,UniProt P06493 (effect direction: stabilized)
18,2.87,UniProt P14618 (effect direction: destabilized)
19,3.7,UniProt P23443 (effect direction: stabilized)
20,4.02,UniProt P24539 (effect direction: stabilized)
21,3.32,UniProt P24928 (effect direction: destabilized)
22,3.38,UniProt P25098 (effect direction: stabilized)
23,< 2.7,UniProt P26639 (effect direction: stabilized)
24,3.54,UniProt P27361 (effect direction: stabilized)
25,3.16,UniProt P28482 (effect direction: stabilized)
26,3.31,UniProt P35626 (effect direction: stabilized)

row,pEC50,Target
1,3.55,UniProt P36507 (effect direction: stabilized)
2,< 2.7,UniProt P42285 (effect direction: stabilized)
3,3.14,UniProt P45984 (effect direction: stabilized)
4,3.3,UniProt P48729 (effect direction: stabilized)
5,< 2.7,UniProt P49591 (effect direction: stabilized)
6,3.37,UniProt P49841 (effect direction: stabilized)
7,3.89,UniProt P51812 (effect direction: stabilized)
8,< 2.7,UniProt P52434 (effect direction: stabilized)
9,3.47,UniProt P60842 (effect direction: stabilized)
10,3,UniProt P60891 (effect direction: stabilized)
11,3.1,UniProt P61163 (effect direction: stabilized)
12,< 2.7,UniProt P61254 (effect direction: destabilized)
13,> 5.3,UniProt P61353 (effect direction: destabilized)
14,3.27,UniProt P61513 (effect direction: destabilized)
15,3.07,UniProt P61956 (effect direction: destabilized)
16,3.68,UniProt P62081 (effect direction: destabilized)
17,4.55,UniProt P62191 (effect direction: stabilized)
18,4.18,UniProt P62195 (effect direction: stabilized)
19,3.14,UniProt P62241 (effect direction: destabilized)
20,2.97,UniProt P62263 (effect direction: destabilized)
21,3.33,UniProt P62266 (effect direction: destabilized)
22,< 2.7,UniProt P62269 (effect direction: destabilized)
23,3.88,UniProt P62277 (effect direction: destabilized)
24,4.05,UniProt P62280 (effect direction: destabilized)
25,2.78,UniProt P62308 (effect direction: destabilized)
26,< 2.7,UniProt P62316 (effect direction: destabilized)

row,pEC50,Target
1,< 2.7,UniProt P62318 (effect direction: destabilized)
2,< 2.7,UniProt P62495 (effect direction: stabilized)
3,3.15,UniProt P62753 (effect direction: destabilized)
4,3.01,UniProt P62826 (effect direction: destabilized)
5,2.99,UniProt P62841 (effect direction: destabilized)
6,4.16,UniProt P62847 (effect direction: destabilized)
7,3,UniProt P62899 (effect direction: destabilized)
8,4.09,UniProt P68400 (effect direction: stabilized)
9,2.79,UniProt P68431 (effect direction: stabilized)
10,2.83,UniProt P78356 (effect direction: stabilized)
11,3.11,UniProt P83731 (effect direction: destabilized)
12,< 2.7,UniProt P84085 (effect direction: destabilized)
13,3.01,UniProt P84095 (effect direction: destabilized)
14,2.89,UniProt P84098 (effect direction: destabilized)
15,3.36,UniProt Q5JUR7 (effect direction: stabilized)
16,2.92,UniProt Q5VZE5 (effect direction: stabilized)
17,3.74,UniProt Q6ZUM4 (effect direction: stabilized)
18,2.98,UniProt Q7L9L4 (effect direction: stabilized)
19,2.78,UniProt Q7Z2Z2 (effect direction: stabilized)
20,2.79,UniProt Q7Z3D6 (effect direction: destabilized)
21,3.14,UniProt Q8N1G2 (effect direction: stabilized)
22,< 2.7,UniProt Q8N2M8 (effect direction: stabilized)
23,3.74,UniProt Q8N4C8 (effect direction: stabilized)
24,3.01,UniProt Q8N9R8 (effect direction: stabilized)
25,2.9,UniProt Q8N163 (effect direction: stabilized)
26,3.06,UniProt Q8NBU5 (effect direction: stabilized)

row,pEC50,Target
1,3.73,UniProt Q8NI60 (effect direction: stabilized)
2,3.04,UniProt Q8TBX8 (effect direction: stabilized)
3,3.39,UniProt Q8WXA9 (effect direction: stabilized)
4,< 2.7,UniProt Q8WYJ6 (effect direction: stabilized)
5,3.66,UniProt Q9BQ61 (effect direction: destabilized)
6,< 2.7,UniProt Q9BQ75 (effect direction: stabilized)
7,3.08,UniProt Q9BSJ8 (effect direction: stabilized)
8,3.84,UniProt Q9BXW7 (effect direction: destabilized)
9,3.25,UniProt Q9BY42 (effect direction: destabilized)
10,3.72,UniProt Q9HCP0 (effect direction: stabilized)
11,3.46,UniProt Q9NQ88 (effect direction: stabilized)
12,3.74,UniProt Q9NQG6 (effect direction: stabilized)
13,3.65,UniProt Q9NYL2 (effect direction: stabilized)
14,2.75,UniProt Q9NYV4 (effect direction: stabilized)
15,2.72,UniProt Q9NZM5 (effect direction: destabilized)
16,3.21,UniProt Q9P289 (effect direction: stabilized)
17,3.47,UniProt Q9UBD5 (effect direction: stabilized)
18,3.34,UniProt Q9UH99 (effect direction: stabilized)
19,3.4,UniProt Q9UKZ1 (effect direction: stabilized)
20,3.96,UniProt Q9UPN6 (effect direction: stabilized)
21,2.97,UniProt Q9UPN7 (effect direction: stabilized)
22,3.71,UniProt Q9Y2H1 (effect direction: stabilized)
23,3.43,UniProt Q9Y2K2 (effect direction: stabilized)
24,3.72,UniProt Q9Y2U5 (effect direction: stabilized)
